Results from patent publication US11873298B2, “Compounds and uses thereof” (JANSSEN PHARMACEUTICA NV, priority 2017, dated 2024).
Where “and” joins values, the source holds several entries; their conditions need not be identical. Equal entries are not always repeated.

Assays:
Type in all cases: cell-based
Ole1 = target: T1, Ole1 (Saccharomyces cerevisiae, UniProt P21147); test: Growth inhibition of yeast strain expressing Ole1 as sole desaturase; details: yeast strain expressing Ole1 as sole desaturase
T1 construct: expressed in transfected cells; host or cells: S. cerevisiae ole1Δ strain (W303 pdr1Δ pdr3Δ background), plasmid pRS316 with TDH3 promoter and CYC1 terminator
T1 sequence (P21147 1-510): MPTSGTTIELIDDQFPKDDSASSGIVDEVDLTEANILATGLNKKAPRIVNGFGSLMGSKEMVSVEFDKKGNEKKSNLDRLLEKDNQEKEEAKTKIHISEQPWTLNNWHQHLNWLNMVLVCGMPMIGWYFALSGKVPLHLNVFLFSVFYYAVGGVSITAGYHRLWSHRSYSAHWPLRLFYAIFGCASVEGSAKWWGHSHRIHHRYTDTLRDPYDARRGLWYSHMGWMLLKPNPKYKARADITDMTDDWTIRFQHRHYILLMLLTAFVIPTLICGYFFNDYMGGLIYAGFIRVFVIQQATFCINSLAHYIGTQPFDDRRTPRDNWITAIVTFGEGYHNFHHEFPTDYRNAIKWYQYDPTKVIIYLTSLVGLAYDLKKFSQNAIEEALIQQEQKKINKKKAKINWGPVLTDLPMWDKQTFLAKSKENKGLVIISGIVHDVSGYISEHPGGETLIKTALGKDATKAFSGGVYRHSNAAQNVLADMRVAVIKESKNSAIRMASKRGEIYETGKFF
Outline: (§1)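 OD600 growth read-out. ole1Δ yeast, pdr1Δ pdr3Δ, with Ole1/SCD1/SCD5 on a plasmid; SX-Ura media throughout; 2× cell density 0.02 in CSM-Galactose; DMSO compound dilutions; humidified 30° C.; Ole1 stopped at 24 h, SCD1/SCD5 at 40 h.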

SCD5 = target: T2, SCD5 (Homo sapiens, UniProt Q86SK9); test: Growth inhibition of humanized yeast strain expressing SCD5 as sole desaturase; details: humanized yeast strain expressing SCD5
T2 construct: host or cells: S. cerevisiae ole1Δ strain (W303 pdr1Δ pdr3Δ background), plasmid pRS316 with TDH3 promoter and CYC1 terminator
T2 sequence (Q86SK9 1-330): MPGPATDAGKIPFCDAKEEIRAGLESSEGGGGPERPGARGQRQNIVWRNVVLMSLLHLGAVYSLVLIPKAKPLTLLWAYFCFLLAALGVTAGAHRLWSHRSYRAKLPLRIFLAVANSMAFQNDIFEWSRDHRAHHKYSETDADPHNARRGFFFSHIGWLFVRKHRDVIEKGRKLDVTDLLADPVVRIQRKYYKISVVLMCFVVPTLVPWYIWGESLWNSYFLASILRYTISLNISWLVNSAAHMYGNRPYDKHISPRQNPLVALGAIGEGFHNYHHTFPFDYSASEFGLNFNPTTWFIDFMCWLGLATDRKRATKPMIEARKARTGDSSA
Outline: as §1

SCD1 = target: T3, SCD1 (Homo sapiens, UniProt O00767); test: Growth inhibition of humanized yeast strain expressing SCD1 as sole desaturase; details: humanized yeast strain expressing SCD1
T3 construct: host or cells: S. cerevisiae ole1Δ strain (W303 pdr1Δ pdr3Δ background), plasmid pRS316 with TDH3 promoter and CYC1 terminator
T3 sequence (O00767 1-359): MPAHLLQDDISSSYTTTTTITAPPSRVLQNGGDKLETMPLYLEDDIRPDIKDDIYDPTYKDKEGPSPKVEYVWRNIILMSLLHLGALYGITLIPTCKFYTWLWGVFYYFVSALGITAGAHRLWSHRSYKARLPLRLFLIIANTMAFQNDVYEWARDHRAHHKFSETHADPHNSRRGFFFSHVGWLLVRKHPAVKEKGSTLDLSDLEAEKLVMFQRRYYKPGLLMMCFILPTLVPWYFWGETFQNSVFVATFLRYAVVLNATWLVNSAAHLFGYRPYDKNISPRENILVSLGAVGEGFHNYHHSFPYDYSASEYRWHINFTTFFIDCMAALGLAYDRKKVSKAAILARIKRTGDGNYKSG
Outline: as §1

SMILES: Cc1nn(C)c2cc(-c3noc(C4CCN(C(=O)[C@H]5CC(=O)N(c6ccc(C#N)cc6)C5)CC4)n3)ccc12 [Compound 307]
- IC50 (Ole1): > 45 µM
- OLE1 % Max Inhibition (Ole1): 7.8% and 4.08%
- IC50 (SCD5): > 45 µM
- SCD5 % Max Inhibition (SCD5): 52.5% and 27.45%
- IC50 (SCD1): ≥ 45 µM
- SCD1 % Max Inhibition (SCD1): 78.2% and 70.58%

SMILES: Cc1nn(C)c2cc(-c3noc(C4CCN(C(=O)[C@@H]5CC(=O)N(c6ccc(C#N)cc6)C5)CC4)n3)ccc12 [Compound 308]
- IC50 (Ole1): > 45 µM and 27.2 µM
- OLE1 % Max Inhibition (Ole1): 63.7% and 49.30%
- IC50 (SCD5): > 45 µM
- SCD5 % Max Inhibition (SCD5): 15.5% and 6.81%
- IC50 (SCD1): ≥ 45 µM
- SCD1 % Max Inhibition (SCD1): 81.6% and 61.05%

SMILES: CCc1nn(C)c2cc(-c3noc(C4CCN(C(=O)CNC(=O)c5ccccc5)CC4)n3)ccc12 [Compound 309]
- IC50 (Ole1): > 45 µM
- OLE1 % Max Inhibition (Ole1): 8.0%
- IC50 (SCD5): > 45 µM
- SCD5 % Max Inhibition (SCD5): 14.7%
- SCD1 % Max Inhibition (SCD1): 80.6%

SMILES: CCN1C(=O)CN(C)c2cc(-c3noc(C4CCN(C(=O)CNC(=O)c5ccccc5)CC4)n3)ccc21 [Compound 310]
- IC50 (Ole1): > 45 µM
- OLE1 % Max Inhibition (Ole1): 7.1%
- IC50 (SCD5): > 45 µM
- SCD5 % Max Inhibition (SCD5): 66.6%
- SCD1 % Max Inhibition (SCD1): 71.2%

SMILES: Cc1nn(C)c2cc(-c3noc(C4CCN(C(=O)N5CCOCC5)CC4)n3)ccc12 [Compound 311]
- IC50 (Ole1): > 45 µM
- OLE1 % Max Inhibition (Ole1): 90.8%
- IC50 (SCD5): > 45 µM
- SCD5 % Max Inhibition (SCD5): 60.5%
- SCD1 % Max Inhibition (SCD1): 72.9%

SMILES: O=C([C@H]1CC(=O)N(c2ccccc2)C1)N1CCC(c2nc(N3CC4(COC4)C3)no2)CC1 [Compound 316]
- IC50 (Ole1): ≥ 45 µM
- OLE1 % Max Inhibition (Ole1): 89.26%
- SCD5 % Max Inhibition (SCD5): 80%
- IC50 (SCD1): ≥ 45 µM
- SCD1 % Max Inhibition (SCD1): 69.01%

SMILES: Cc1nn(C)c2cc(-c3noc(C4CCN(C(=O)CNC(=O)c5ccc(C(F)(F)F)cc5)CC4)n3)ccc12 [Compound 317]
- IC50 (Ole1): > 45 µM
- OLE1 % Max Inhibition (Ole1): 8.3%
- IC50 (SCD5): > 45 µM
- SCD5 % Max Inhibition (SCD5): 20.6%
- SCD1 % Max Inhibition (SCD1): 30.0%

SMILES: Cc1c2cc(-c3noc(C4CCN(C(=O)c5ccc(C(C)C)cc5)CC4)n3)ccc2nn1C [Compound 318]
- IC50 (Ole1): > 45 µM
- OLE1 % Max Inhibition (Ole1): 89.1%
- IC50 (SCD5): > 45 µM
- SCD5 % Max Inhibition (SCD5): 33.7%
- IC50 (SCD1): > 45 µM
- SCD1 % Max Inhibition (SCD1): 77.6%

SMILES: Cc1nn(C)c2cc(-c3nc(C4CCN(C(=O)OC(C)(C)C)CC4)no3)ccc12 [Compound 319]
- IC50 (Ole1): > 45 µM
- OLE1 % Max Inhibition (Ole1): 74.25% and 63.83% and 86.3% and 84.75%
- IC50 (SCD5): > 45 µM
- IC50 (SCD1): ≥ 45 µM
- SCD1 % Max Inhibition (SCD1): 97.10% and 89.16% and 81.7% and 75.42%

SMILES: CCn1nc2cc(-c3noc(C4CCN(C(=O)CNC(=O)c5ccccc5)CC4)n3)ccc2c1C [Compound 320]
- IC50 (Ole1): > 45 µM
- OLE1 % Max Inhibition (Ole1): 28.5%
- IC50 (SCD5): > 45 µM
- SCD5 % Max Inhibition (SCD5): 76.0%
- SCD1 % Max Inhibition (SCD1): 74.7%

SMILES: CCc1c2ccc(-c3noc(C4CCN(C(=O)CNC(=O)c5ccccc5)CC4)n3)cc2nn1C [Compound 321]
- IC50 (Ole1): > 45 µM
- OLE1 % Max Inhibition (Ole1): 14.0%
- IC50 (SCD5): > 45 µM
- SCD5 % Max Inhibition (SCD5): 74.1%
- SCD1 % Max Inhibition (SCD1): 71.6%

SMILES: Cc1nn(C)c2cc(-c3noc(C4CCN(C(=O)CNC(=O)c5cccc(C#N)c5)CC4)n3)ccc12 [Compound 322]
- IC50 (Ole1): > 45 µM
- OLE1 % Max Inhibition (Ole1): 9.0%
- IC50 (SCD5): > 45 µM
- SCD5 % Max Inhibition (SCD5): 29.8%
- SCD1 % Max Inhibition (SCD1): 73.6%

SMILES: O=C(C1CC(=O)N(c2cccc(Cl)c2)C1)N1CCC(c2nc(N3CCOCC3)no2)CC1 (stereo not drawn) [Compound 323]
- IC50 (Ole1): > 45 µM
- OLE1 % Max Inhibition (Ole1): 89.1%
- IC50 (SCD5): > 45 µM
- SCD5 % Max Inhibition (SCD5): 73.5%
- IC50 (SCD1): > 45 µM
- SCD1 % Max Inhibition (SCD1): 76.1%
